Test results as given in patent publication US20190125888A1, “TARGETED CONJUGATES AND PARTICLES AND FORMULATIONS THEREOF” (priority 2015, published 2019).
Like-named read-outs stand apart in the source and are kept apart here. Where a SMILES comes first, the peptide text is derived from it. Bridges are numbered along the chain shown (N, C = ends). [ ]: non-standard residue; d: D form. The star is where a group is joined. NH(CH2)2SS(DM1) = COc1cc2cc(c1Cl)N(C)C(=O)C[C@H](OC(=O)[C@H](C)N(C)C(=O)CCSSCCN*)[C@]1(C)O[C@H]1[C@H](C)[C@@H]1C[C@@](O)(NC(=O)O1)[C@H](OC)/C=C/C=C(\C)C2; X1 = COc1cc2cc(c1Cl)N(C)C(=O)C[C@H](OC(=O)[C@H](C)N(C)C(=O)CCS*)[C@]1(C)O[C@H]1[C@H](C)[C@@H]1C[C@@](O)(NC(=O)O1)[C@H](OC)/C=C/C=C(\C)C2; Octanoyl = CCCCCCCC(=O)*

Assays:
[1] = test system: NCI-H524 (ATCC) human lung cancer cells; format: cell-based
Method: FIG. 1 is a graph of various conjugates represented as bars and showing on the Y-axis their activity in an H524 proliferation assay with and without competition by octreotide. […] This illustrates the suprprising finding that only maytansinoid conjugates show activity that is dependent on the receptor.
Conjugates were assessed in an in vitro assay evaluating inhibition of cell proliferation. NCI-H524 (ATCC) human lung cancer cells were plated in 96 well, V-bottomed plates (Costar) at a concentration of 5,000 cells/well and 24 hours later were treated with compound for 6 hours and further incubated 66 hours. Compound starting dose was 20 μM and three fold serial dilutions were done for a total of ten points. After 6 hours of treatment, cells were spun down, the drug containing media was removed, and fresh complete medium was added and used to resuspend the cells, which were spun again. After removal of the wash media, the cells were resuspended in complete medium, then transferred into white walled, flat bottomed 96 well plates. […] Proliferation was measured using CellTiter Glo reagent using the standard protocol (Promega) and a Glomax multi+detection system (Promega). Percent proliferation inhibition was calculated using the following formula: % inhibition=(control-treatment)/control*100. Control is defined as vehicle alone. IC50 curves were generated using the nonlinear regression analysis (four parameter) with GraphPad Prism 6.
Conjugates were tested for their activity dependence on the somatostatin receptor. Active agent Z in the conjugate was selected from auristatin, carbazitaxel, DM1, doxorubicin, platinum, SN-38 and vinblastine. Active agent Z is connected to octreotide with various linkers. Proliferation IC50 values of the conjugates were measured. Proliferation IC50 values of the conjugates without octreotide competition were also measured. The ratio of IC50 with octreotide competition and IC50 without octreotide competition is an indicator of whether activity is at least particially dependent on bind to the somatostatin receptor. […] Therefore, the activity of conjugates comprising DM1 is dependent on the binding to the somatostatin receptor.

[2] = Chrom LogP of maytansinoid conjugates; format: physicochemical
[3] = Ligand charge of maytansinoid conjugates; format: physicochemical
human SSTR2 = human SSTR2 (Homo sapiens, UniProt P30874); experiment: Radioligand-receptor binding assay, [125I] somatostatin, membranes from SSTR2 expressing CHO-K1 cells
Method: These conjugates were also assessed in an in vitro assay evaluating binding to the somatostatin receptor 2 (SSTR2). A radioligand-receptor binding assay was conducted at Eurofins Panlabs (Taiwan) to determine the affinity of conjugates described herein to the SSTR2. The assay measures binding of radiolabeled ligand, [^125I] labeled somatostatin, to human SSTR2 using membrane preparations from SSTR2 expressing CHO-K1 cells. Membranes were incubated with radiolabeled somatostatin (0.03 nM) in the presence of conjugate/compound starting at a dose of 10 uM using 6× serial dilutions to obtain a 10-pt curve. After a four hour incubation, membranes were filtered and washed 3× and counted to determine the remaining [^125I] somatostatin bound to the receptor. IC50 values were determined by a non-linear, least squares regression analysis using MathIQ™ (ID Business Solutions Ltd., UK).

human NCI-H69 SCLC = experiment: H69 xenograft efficacy study, tumor growth inhibition; format: in vivo, mice
Method: Applicants assessed the activity of maytansinoid conjugates in vivo. In these experiments, the ability of conjugates to affect the growth of human NCI-H69 SCLC was tested. For the in vivo study, 8 week old female NCR nude mice were inoculated subcutaneously into the right flank with 2 million cells in 1:1 RPMI 1640 (Invitrogen, Carlsbad, Calif.)/Matrigel® (BD Biosciences, San Jose, Calif.). Tumor measurements were taken twice weekly, using vernier calipers. Tumor volume was calculated using the formula: V=0.5×width×width×length.
When tumors approached a volume of 200 mm^3, mice were randomized into four groups of ten animals. Mice were treated with vehicle control (10% propylene glycol in water for injection) and maytansinoid conjugates (10% propylene glycol in water for injection). Final tumor volumes were analyzed using with a one-way analysis of variance and Tukey multiple comparison test.

[4] = read-out: H524 IC50 6 h, 6 hours treatment, further 66 hours incubation
[5] = read-out: H524 IC50 with 100 μM octreotide 6 h, with 100 μM octreotide competition, 6 h treatment

human SSTR2, sequence (P30874 whole entry): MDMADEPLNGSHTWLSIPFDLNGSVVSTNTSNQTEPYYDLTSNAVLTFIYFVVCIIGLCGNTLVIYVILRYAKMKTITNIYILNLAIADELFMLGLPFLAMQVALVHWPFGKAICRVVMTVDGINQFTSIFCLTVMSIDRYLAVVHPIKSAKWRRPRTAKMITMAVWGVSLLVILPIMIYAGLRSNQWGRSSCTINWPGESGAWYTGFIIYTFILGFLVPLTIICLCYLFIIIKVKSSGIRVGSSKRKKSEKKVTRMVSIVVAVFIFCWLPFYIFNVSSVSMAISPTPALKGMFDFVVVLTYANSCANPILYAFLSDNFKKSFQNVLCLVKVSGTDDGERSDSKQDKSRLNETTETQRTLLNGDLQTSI

Structure (SMILES)	IC50 [1, 4] [nM]	IC50 [1, 5] [nM]	chromatographic logP [2]	Ligand charge [3]	Ki (human SSTR2) [nM]	TGI % Day 13 (human NCI-H69 SCLC; 0.7 mg/kg once weekly for two doses, Day 13) [%]	TGI % Day 17 (human NCI-H69 SCLC; 0.7 mg/kg once weekly for two doses, Day 17) [%]	TGI % Day 20 (human NCI-H69 SCLC; 0.7 mg/kg once weekly for two doses, Day 20) [%]	TGI % Day 24 (human NCI-H69 SCLC; 0.7 mg/kg once weekly for two doses, Day 24) [%]	TGI % Day 30 (human NCI-H69 SCLC; 0.7 mg/kg once weekly for two doses, Day 30) [%]	TGI % at day 22 (human NCI-H69 SCLC; Dose 0.67 × 2 mg/kg, total dose 1.34 mg/kg) [%]
CCCCCCNC(=O)[C@@H](NC(=O)[C@@H]1CSSC[C@H](NC(=O)[C@@H](Cc2ccccc2)NC(=O)NCCSSCCC(=O)N(C)[C@@H](C)C(=O)O[C@H]2CC(=O)N(C)c3cc(cc(OC)c3Cl)C/C(C)=C/C=C/[C@@H](OC)[C@@]3(O)C[C@H](OC(=O)N3)[C@@H](C)[C@@H]3O[C@@]23C)C(=O)N[C@@H](Cc2ccc(O)cc2)C(=O)N[C@H](Cc2c[nH]c3ccccc23)C(=O)N[C@@H](CCCCN)C(=O)N[C@@H]([C@@H](C)O)C(=O)N1)[C@@H](C)O [Conjugate 52]	23	167	3.24	+1							
CCCCCCCC(=O)N[C@H](Cc1ccccc1)C(=O)N[C@H]1CSSC[C@@H](C(=O)NCCSSCCC(=O)N(C)[C@@H](C)C(=O)O[C@H]2CC(=O)N(C)c3cc(cc(OC)c3Cl)C/C(C)=C/C=C/[C@@H](OC)[C@@]3(O)C[C@H](OC(=O)N3)[C@@H](C)[C@@H]3O[C@@]23C)NC(=O)[C@H]([C@@H](C)O)NC(=O)[C@H](CCCCN)NC(=O)[C@@H](Cc2c[nH]c3ccccc23)NC(=O)[C@H](Cc2ccc(O)cc2)NC1=O [Conjugate 21] (Octanoyl-[dF]CY[dW]KTC-{NH(CH2)2SS(DM1)}; disulfide 2-7)			3.48	+1	1.29						
COc1cc2cc(c1Cl)N(C)C(=O)C[C@H](OC(=O)[C@H](C)N(C)C(=O)CCSSC[C@H](NC(=O)[C@@H]1CSSC[C@H](NC(=O)[C@H](N)Cc3c[nH]c4ccccc34)C(=O)N[C@@H](Cc3ccc(O)cc3)C(=O)N[C@H](Cc3c[nH]c4ccccc34)C(=O)N[C@@H](CCCCN)C(=O)N[C@@H]([C@@H](C)O)C(=O)N1)C(N)=O)[C@]1(C)O[C@H]1[C@H](C)[C@@H]1C[C@@](O)(NC(=O)O1)[C@H](OC)/C=C/C=C(\C)C2 [Conjugate 24] (H-[dW]CY[dW]KTCC(X1)-NH2; disulfide 2-7)	140	214	2.03	+2							
CCNC(=O)[C@@H](NC(=O)[C@@H]1CSSC[C@H](NC(=O)[C@@H](Cc2ccccc2)NC(=O)NCCSSCCC(=O)N(C)[C@@H](C)C(=O)O[C@H]2CC(=O)N(C)c3cc(cc(OC)c3Cl)C/C(C)=C/C=C/[C@@H](OC)[C@@]3(O)C[C@H](OC(=O)N3)[C@@H](C)[C@@H]3O[C@@]23C)C(=O)N[C@@H](Cc2ccc(O)cc2)C(=O)N[C@H](Cc2c[nH]c3ccccc23)C(=O)N[C@@H](CCCCN)C(=O)N[C@@H]([C@@H](C)O)C(=O)N1)[C@@H](C)O [Conjugate 53]	42	86	2.45	+1							
COc1cc2cc(c1Cl)N(C)C(=O)C[C@H](OC(=O)[C@H](C)N(C)C(=O)CCSSCCNC(=O)[C@@H](NC(=O)[C@@H]1CSSC[C@H](NC(=O)[C@@H](Cc3ccccc3)NC(=O)NC3CCCCC3)C(=O)N[C@@H](Cc3ccc(O)cc3)C(=O)N[C@H](Cc3c[nH]c4ccccc34)C(=O)N[C@@H](CCCCN)C(=O)N[C@@H]([C@@H](C)O)C(=O)N1)[C@@H](C)O)[C@]1(C)O[C@H]1[C@H](C)[C@@H]1C[C@@](O)(NC(=O)O1)[C@H](OC)/C=C/C=C(\C)C2 [Conjugate 20]	11	52	3.1	+1							
CCNC(=O)[C@@H](NC(=O)[C@@H]1CSSC[C@H](NC(=O)[C@@H](Cc2ccccc2)NCCCSSCCC(=O)N(C)[C@@H](C)C(=O)O[C@@H]2CC(=O)N(C)c3cc(cc(OC)c3Cl)C/C(C)=C/C=C/[C@@H](OC)[C@@]3(O)C[C@H](OC(=O)N3)[C@@H](C)[C@@H]3O[C@@]23C)C(=O)N[C@@H](Cc2ccc(O)cc2)C(=O)N[C@H](Cc2c[nH]c3ccccc23)C(=O)N[C@@H](CCCCN)C(=O)N[C@@H]([C@@H](C)O)C(=O)N1)[C@@H](C)O [Conjugate 50]	43	149	2.32	+2							
COc1cc2cc(c1Cl)N(C)C(=O)C[C@H](OC(=O)[C@H](C)N(C)C(=O)CCSSCCC(=O)NC[C@H](NC(=O)[C@@H]1CSSC[C@H](NC(=O)[C@H](N)Cc3ccccc3)C(=O)N[C@@H](Cc3ccc(O)cc3)C(=O)N[C@H](Cc3c[nH]c4ccccc34)C(=O)N[C@@H](CCCCN)C(=O)N[C@@H]([C@@H](C)O)C(=O)N1)C(N)=O)[C@]1(C)O[C@H]1[C@H](C)[C@@H]1C[C@@](O)(NC(=O)O1)[C@H](OC)/C=C/C=C(\C)C2 [Conjugate 44]	3.6	218		+2	0.022	58.9	56.7	59.6	53.1	56.1	60
CCCC(=O)N[C@H](Cc1ccccc1)C(=O)N[C@H]1CSSC[C@@H](C(=O)N[C@H](C(=O)NCCSSCCC(=O)N(C)[C@@H](C)C(=O)O[C@H]2CC(=O)N(C)c3cc(cc(OC)c3Cl)C/C(C)=C/C=C/[C@@H](OC)[C@@]3(O)C[C@H](OC(=O)N3)[C@@H](C)[C@@H]3O[C@@]23C)[C@@H](C)O)NC(=O)[C@H]([C@@H](C)O)NC(=O)[C@H](CCCCN)NC(=O)[C@@H](Cc2c[nH]c3ccccc23)NC(=O)[C@H](Cc2ccc(O)cc2)NC1=O [Conjugate 19]	6.9	111	2.88	+1							
COc1cc2cc(c1Cl)N(C)C(=O)C[C@H](OC(=O)[C@H](C)N(C)C(=O)CCSC1CC(=O)N(CCCNC(=O)CC[C@H](NC(=O)[C@@H]3CSSC[C@H](NC(=O)[C@H](N)Cc4ccccc4)C(=O)N[C@@H](Cc4ccc(O)cc4)C(=O)N[C@H](Cc4c[nH]c5ccccc45)C(=O)N[C@@H](CCCCN)C(=O)N[C@@H]([C@@H](C)O)C(=O)N3)C(N)=O)C1=O)[C@]1(C)O[C@H]1[C@H](C)[C@@H]1C[C@@](O)(NC(=O)O1)[C@H](OC)/C=C/C=C(\C)C2 (stereo partly drawn) [Conjugate 48]	9	157		+2	0.21						
COc1cc2cc(c1Cl)N(C)C(=O)C[C@H](OC(=O)[C@H](C)N(C)C(=O)CCSSC(C)(C)[C@H](NC(=O)[C@@H]1CSSC[C@H](NC(=O)[C@H](N)Cc3ccccc3)C(=O)N[C@@H](Cc3ccc(O)cc3)C(=O)N[C@H](Cc3c[nH]c4ccccc34)C(=O)N[C@@H](CCCCNC(=O)[C@@H](NC(=O)[C@@H](N)C(C)C)C(C)C)C(=O)N[C@@H]([C@@H](C)O)C(=O)N1)C(N)=O)[C@]1(C)O[C@H]1[C@H](C)[C@@H]1C[C@@](O)(NC(=O)O1)[C@H](OC)/C=C/C=C(\C)C2 [Conjugate 58]	90	250		+2	3980						
